These compounds were tested against human BCL6 BTB domain (Trx-6×His-BCL6) / BCOR-AF633 peptide (Homo sapiens (Human), UniProt P41182) (assay: HTRF assay). Conditions: 1 nM Trx-6×His-BCL6, 300 nM BCOR-AF633 peptide, 2 hours incubation.
Type: binding

Compound	HTRF avg pIC50 (1 nM)
C[C@H]1COC(=O)c2c(c3cc(Nc4nc(N5CCCC5=O)ncc4Cl)ccc3n(C)c2=O)N1 [Example 8i, (S)-10-((5-chloro-2-(2-oxopyrrolidin-1-yl)pyrimidin-4-yl)amino)-2,7-dimethyl-2,3-dihydro-[1,4]oxazepino[6,5-c]quinoline-5,6(1H,7H)-dione]	6.23
C[C@H]1COCc2c(c3cc(Nc4ccnc(Cl)c4C#N)ccc3n(C)c2=O)N1 [Example 9a, (S)-2-chloro-4-((2,7-dimethyl-6-oxo-1,2,3,5,6,7-hexahydro-[1,4]oxazepino[6,5-c]quinolin-10-yl)amino)nicotinonitrile]	5.66
Cn1c(=O)c2c(c3cc(Nc4nc(-n5ccc(C(F)(F)F)n5)ncc4Cl)ccc31)NC1(CCOC1)CCO2 (centres unmarked) [Example 5j, 10′-((5-chloro-2-(3-(trifluoromethyl)-1H-pyrazol-1-yl)pyrimidin-4-yl)amino)-7′-methyl-3′,4,4′,5-tetrahydro-1′H,2H-spiro[furan-3,2′-[1,4]oxazepino[2,3-c]quinolin]-6′(7′H)-one]	5.79
(S)-10-((5-chloro-2-((1S,5R)-3-methyl-2-oxo-3,8- diazabicyclo[3.2.1]octan-8-yl)pyrimidin-4-yl)amino)-2-cyclopropyl- 3,3-difluoro-7-methyl-1,2,3,4-tetrahydro-[1,4]oxazepino[2,3-c]quinolin- 6(7H)-one and (S)-10-((5-chloro-2-((1R,5S)-3-methyl-2-oxo-3,8- diazabicyclo[3.2.1]octan-8-yl)pyrimidin-4-yl)amino)-2-cyclopropyl- 3,3-difluoro-7-methyl-1,2,3,4-tetrahydro- [1,4]oxazepino[2,3-c]quinolin-6(7H)-one [Example 13b]	8.59
CC1CCc2c(c3cc(Nc4ccnc(Cl)c4C#N)ccc3n(C)c2=O)N1 (centres unmarked) [Example 10a, 2-chloro-4-((2,6-dimethyl-5-oxo-1,2,3,4,5,6-hexahydrobenzo[h][1,6]-naphthyridin-9-yl)amino)nicotinonitrile]	5.84
COCC1(C)CCOc2c(c3cc(Nc4nc(-n5ccc(C(F)(F)F)n5)ncc4Cl)ccc3n(C)c2=O)N1 (centres unmarked) [Example 5b, 10-((5-chloro-2-(3-(trifluoromethyl)-1H-pyrazol-1-yl)pyrimidin-4-yl)amino)-2-(methoxymethyl)-2,7-dimethyl-1,2,3,4-tetrahydro-[1,4]oxazepino[2,3-c]quinolin-6(7H)-one]	6.09
C[C@H]1COC(=O)c2c(c3cc(Nc4nc(N5CC6CCC(C6)C5)ncc4Cl)ccc3n(C)c2=O)N1 [Example 8h, (2S)-10-((2-(3-azabicyclo[3.2.1]octan-3-yl)-5-chloropyrimidin-4-yl)amino)-2,7-dimethyl-2,3-dihydro-[1,4]oxazepino[6,5-c]quinoline-5,6(1H,7H)-dione]	6.47
C[C@H]1COC(=O)c2c(c3cc(Nc4ccnc(Cl)c4C#N)ccc3n(C)c2=O)N1 [Example 6a, (S)-2-chloro-4-((2,7-dimethyl-5,6-dioxo-1,2,3,5,6,7-hexahydro-[1,4]oxazepino[6,5-c]quinolin-10-yl)amino)nicotinonitrile]	7.01
Cn1c(=O)c2c(c3cc(Nc4ccnc(Cl)c4C#N)ccc31)NC(C(F)F)CCO2 (centres unmarked) [Example 1p, 2-chloro-4-((2-(difluoromethyl)-7-methyl-6-oxo-1,2,3,4,6,7-hexahydro-[1,4]oxazepino[2,3-c]quinolin-10-yl)amino)nicotinonitrile]	5.67
Cn1c(=O)c2c(c3cc(Nc4nc(N5C6CCCC5CC6)ncc4Cl)ccc31)N[C@@H](C1CC1)COC2=O [Example 8j, (2S)-10-((2-(8-azabicyclo[3.2.1]octan-8-yl)-5-chloropyrimidin-4-yl)amino)-2-cyclopropyl-7-methyl-2,3-dihydro-[1,4]oxazepino[6,5-c]quinoline-5,6(1H,7H)-dione]	6.65
CC1CSc2c(c3cc(Nc4ccnc(Cl)c4C#N)ccc3n(C)c2=O)N1 (centres unmarked) [Example 1t, 2-chloro-4-((2,6-dimethyl-5-oxo-2,3,5,6-tetrahydro-1H-[1,4]thiazino[2,3-c]quinolin-9-yl)amino)nicotinonitrile]	6.00

Continued, values first:

HTRF avg pIC50 (1 nM)	Compound
8.70	C[C@H]1C[C@@H](O)CN(c2ncc(Cl)c(Nc3ccc4c(c3)c3c(c(=O)n4C)OCC(F)(F)[C@H](C4CC4)N3)n2)C1 (single isomer, unassigned) [Example 13d, (S)-10-((5-chloro-2-((3R,5S)-3-hydroxy-5-methylpiperidin-1-yl)pyrimidin-4-yl)amino)-2-cyclopropyl-3,3-difluoro-7-methyl-1,2,3,4-tetrahydro-[1,4]oxazepino[2,3-c]quinolin-6(7H)-one or (S)-10-((5-chloro-2-((3S,5R)-3-hydroxy-5-methylpiperidin-1-yl)pyrimidin-4-yl)amino)-2-cyclopropyl-3,3-difluoro-7-methyl-1,2,3,4-tetrahydro-[1,4]oxazepino[2,3-c]quinolin-6(7H)-one]
8.50	CN1CC2(C1)CN(c1ncc(Cl)c(Nc3ccc4c(c3)c3c(c(=O)n4C)OCC(F)(F)[C@H](C4CC4)N3)n1)C2 [Example 13g, (S)-10-((5-chloro-2-(6-methyl-2,6-diazaspiro[3.3]heptan-2-yl)pyrimidin-4-yl)amino)-2-cyclopropyl-3,3-difluoro-7-methyl-1,2,3,4-tetrahydro-[1,4]oxazepino[2,3-c]quinolin-6(7H)-one: formic acid (1:2)]
6.84	C[C@@H]1CN(c2ncc(Cl)c(Nc3ccc4c(c3)c3c(c(=O)n4C)SCC[C@H](C4CC4)N3)n2)C[C@H](C)C1(F)F [Example 12m, (R)-10-((5-chloro-2-((3S,5R)-4,4-difluoro-3,5-dimethylpiperidin-1-yl)pyrimidin-4-yl)amino)-2-cyclopropyl-7-methyl-1,2,3,4-tetrahydro-[1,4]thiazepino[2,3-c]quinolin-6(7H)-one]
7.15	CNCCn1c(=O)c2c(c3cc(Nc4nc(N5C[C@@H](C)C(F)(F)[C@@H](C)C5)ncc4Cl)ccc31)N[C@@H](C1CC1)CCO2 [Example 17a, (R)-10-((5-chloro-2-((3S,5R)-4,4-difluoro-3,5-dimethylpiperidin-1-yl)pyrimidin-4-yl)amino)-2-cyclopropyl-7-(2-(methylamino)ethyl)-1,2,3,4-tetrahydro-[1,4]oxazepino[2,3-c]quinolin-6(7H)-one]
7.74	C[C@@H]1CN(c2ncc(Cl)c(Nc3ccc4c(c3)c3c(c(=O)n4C)OCC(F)(F)[C@H](C4CC4)N3)n2)C[C@H](C)C1(F)F [Example 12o, (S)-10-((5-chloro-2-((3S,5R)-4,4-difluoro-3,5-dimethylpiperidin-1-yl)pyrimidin-4-yl)amino)-2-cyclopropyl-3,3-difluoro-7-methyl-1,2,3,4-tetrahydro-[1,4]oxazepino[2,3-c]quinolin-6(7H)-one]
7.52	Cn1c(=O)c2c(c3cc(Nc4nc(N5CCC(F)(F)[C@@H](O)C5)ncc4Cl)ccc31)N[C@@H](C1CC1)CCO2 (single isomer, unassigned) [Example 12z, (R)-10-((5-chloro-2-((S)-4,4-difluoro-3-hydroxypiperidin-1-yl)pyrimidin-4-yl)amino)-2-cyclopropyl-7-methyl-1,2,3,4-tetrahydro-[1,4]oxazepino[2,3-c]quinolin-6(7H)-one or (R)-10-((5-chloro-2((R)-4,4-difluoro-3-hydroxypiperidin-1-yl)pyrimidin-4-yl)amino)-2-cyclopropyl-7-methyl-1,2,3,4-tetrahydro-[1,4]oxazepino[2,3-c]quinolin-6(7H)-one]
6.58	CC1CNC(=O)c2c(c3cc(Nc4ccnc(Cl)c4C#N)ccc3n(C)c2=O)N1 (centres unmarked) [Example 18a, 2-chloro-4-((2,7-dimethyl-5,6-dioxo-2,3,4,5,6,7-hexahydro-1H-[1,4]diazepino[6,5-c]quinolin-10-yl)amino)nicotinonitrile]
8.47	C[C@@H]1CN(c2ncc(Cl)c(Nc3ccc4c(c3)c3c(c(=O)n4C)OCC(F)(F)[C@H](C4CC4)N3)n2)CCO1 [Example 12s, (S)-10-((5-chloro-2-((R)-2-methylmorpholino)pyrimidin-4-yl)amino)-2-cyclopropyl-3,3-difluoro-7-methyl-1,2,3,4-tetrahydro-[1,4]oxazepino[2,3-c]quinolin-6(7H)-one]
8.65	(S)-10-((5-chloro-2-((S)-4,4-difluoro-3- (hydroxymethyl)piperidin-1-yl)pyrimidin-4-yl)amino)-2-cyclopropyl- 3,3-difluoro-7-methyl-1,2,3,4-tetrahydro-[1,4]oxazepino[2,3-c]quinolin- 6(7H)-one or (S)-10-((5-chloro-2-((R)-4,4-difluoro-3- (hydroxymethyl)piperidin-1-yl)pyrimidin-4-yl)amino)-2-cyclopropyl- 3,3-difluoro-7-methyl-1,2,3,4-tetrahydro-[1,4]oxazepino[2,3-c]quinolin- 6(7H)-one [Example 12q]
8.45	CN1CCN(c2ncc(F)c(Nc3ccc4c(c3)c3c(c(=O)n4C)OCC(F)(F)[C@H](C4CC4)N3)n2)CC1=O [Example 13i, (S)-2-cyclopropyl-3,3-difluoro-10-((5-fluoro-2-(4-methyl-3-oxopiperazin-1-yl)pyrimidin-4-yl)amino)-7-methyl-1,2,3,4-tetrahydro-[1,4]oxazepino[2,3-c]quinolin-6(7H)-one]

Same assay, conditions: read-out: IC50 in the HTRF assay

IC50	Compound
> 2.5 µM	Cn1c(=O)c2c(c3cc(Nc4ccnc(Cl)c4C#N)ccc31)NC(CC1CC1)CO2 (centres unmarked) [2-chloro-4-((2-(cyclopropylmethyl)-6-methyl-5-oxo-2,3,5,6-tetrahydro-1H-[1,4]oxazino[2,3-c]quinolin-9-yl)amino)nicotinonitrile]
> 2.5 µM	COc1cnc(N2C[C@@H](C)C(F)(F)[C@@H](C)C2)nc1Nc1ccc2c(c1)c1c(c(=O)n2C)OCC[C@H](C2CC2)N1 [(R)-2-cyclopropyl-10-((2-((3S,5R)-4,4-difluoro-3,5-dimethylpiperidin-1-yl)-5-methoxypyrimidin-4-yl)amino)-7-methyl-1,2,3,4-tetrahydro-[1,4]oxazepino[2,3-c]quinolin-6(7H)-one]

— patent US20230287003A1, “BCL6 INHIBITORS” (Cancer Research Technology Limited, priority 2018, published 2023)
